Where two headings read alike, the source gives them in different places.

Test [1] addresses T1, wild-type (WT) KATP channels (Kir6.2/SUR1) (Homo sapiens, UniProt Q09428+Q14654).
For test [2], the target named is T1, wild-type (WT) KATP channels (Kir6.2/SUR1). In words: Two-electrode voltage-clamp whole-cell currents in Xenopus oocytes, wild-type channel. It is filed as cell-based. For orientation: In two-electrode clamp one electrode senses voltage and the other passes current.

T1 sequence (Q14654 whole entry): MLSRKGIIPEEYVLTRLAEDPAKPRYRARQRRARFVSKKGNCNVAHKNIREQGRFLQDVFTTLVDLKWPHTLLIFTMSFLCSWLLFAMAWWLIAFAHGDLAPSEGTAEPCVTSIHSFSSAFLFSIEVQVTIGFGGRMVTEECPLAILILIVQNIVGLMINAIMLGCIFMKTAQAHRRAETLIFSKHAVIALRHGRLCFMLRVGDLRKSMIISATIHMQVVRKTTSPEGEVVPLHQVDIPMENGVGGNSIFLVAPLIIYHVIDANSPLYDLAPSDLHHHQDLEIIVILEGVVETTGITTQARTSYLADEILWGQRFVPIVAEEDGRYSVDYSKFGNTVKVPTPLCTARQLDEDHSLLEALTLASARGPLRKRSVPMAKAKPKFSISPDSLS
T1 sequence (Q09428 whole entry): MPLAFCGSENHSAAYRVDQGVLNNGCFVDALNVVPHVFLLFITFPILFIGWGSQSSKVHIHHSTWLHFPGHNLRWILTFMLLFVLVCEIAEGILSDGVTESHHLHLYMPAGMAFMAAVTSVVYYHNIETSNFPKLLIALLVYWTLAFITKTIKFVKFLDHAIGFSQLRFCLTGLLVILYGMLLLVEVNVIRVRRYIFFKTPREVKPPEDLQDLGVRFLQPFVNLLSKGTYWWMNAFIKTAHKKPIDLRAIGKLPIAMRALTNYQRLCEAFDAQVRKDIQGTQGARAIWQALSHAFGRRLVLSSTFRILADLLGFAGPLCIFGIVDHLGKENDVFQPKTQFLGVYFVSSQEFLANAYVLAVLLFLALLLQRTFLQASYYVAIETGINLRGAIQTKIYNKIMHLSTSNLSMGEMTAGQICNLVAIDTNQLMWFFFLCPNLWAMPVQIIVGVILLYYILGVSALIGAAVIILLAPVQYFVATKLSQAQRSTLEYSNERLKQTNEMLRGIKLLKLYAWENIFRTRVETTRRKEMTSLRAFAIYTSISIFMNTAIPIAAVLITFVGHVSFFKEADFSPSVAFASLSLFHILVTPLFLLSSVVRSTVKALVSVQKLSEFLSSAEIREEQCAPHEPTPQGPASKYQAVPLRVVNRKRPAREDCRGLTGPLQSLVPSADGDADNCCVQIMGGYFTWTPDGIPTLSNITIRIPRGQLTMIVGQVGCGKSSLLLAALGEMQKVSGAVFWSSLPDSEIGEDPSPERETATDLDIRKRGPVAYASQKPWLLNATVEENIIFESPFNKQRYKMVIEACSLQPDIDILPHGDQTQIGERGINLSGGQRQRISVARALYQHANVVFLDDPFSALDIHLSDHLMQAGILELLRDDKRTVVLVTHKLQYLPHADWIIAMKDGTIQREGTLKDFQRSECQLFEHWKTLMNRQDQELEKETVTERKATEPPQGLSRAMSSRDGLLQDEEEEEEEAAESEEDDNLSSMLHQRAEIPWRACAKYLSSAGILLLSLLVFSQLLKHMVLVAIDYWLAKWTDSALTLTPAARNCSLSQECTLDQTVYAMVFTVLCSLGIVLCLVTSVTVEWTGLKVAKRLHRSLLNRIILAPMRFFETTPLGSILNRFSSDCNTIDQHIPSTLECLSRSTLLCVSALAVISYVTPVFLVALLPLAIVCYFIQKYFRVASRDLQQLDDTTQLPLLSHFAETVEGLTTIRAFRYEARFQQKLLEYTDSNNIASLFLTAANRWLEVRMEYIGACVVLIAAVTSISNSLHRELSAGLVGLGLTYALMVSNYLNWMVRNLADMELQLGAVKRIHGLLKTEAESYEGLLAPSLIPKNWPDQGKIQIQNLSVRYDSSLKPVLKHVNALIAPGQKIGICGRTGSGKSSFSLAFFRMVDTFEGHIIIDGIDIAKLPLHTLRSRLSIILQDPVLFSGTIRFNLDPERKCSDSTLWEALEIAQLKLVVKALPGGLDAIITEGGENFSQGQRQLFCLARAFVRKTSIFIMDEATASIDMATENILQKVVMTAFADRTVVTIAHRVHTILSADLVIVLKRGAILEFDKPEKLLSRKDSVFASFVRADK

`Nc1ncnc2c1ncn2[C@@H]1O[C@H](COP(=O)(O)OP(=O)(O)OP(=O)(O)O)[C@@H](O)[C@H]1O` [ATP, adenosine triphosphate]: the “Hill coefficient h, fits to individual dose-response relationships (mean±SEM)” value in test [1] (absence of Mg2+) came to 1.24±0.05. Moreover, in test [1] (presence of Mg2+), the “Hill coefficient h, fit to the mean data” value turned out to be 1.1 and the “Hill coefficient h, fits to individual dose-response relationships (mean±SEM)” value is listed as 1.12±0.04.

In the case of `[N-]=[N+]=[N-].[Na+]` [Na-azide], the “activation of whole-cell currents by the metabolic inhibitor” value in test [2] (WT, 3 mM Na-azide) is “activated”.

In the case of `CCCCNC(=O)NS(=O)(=O)c1ccc(C)cc1` [tolbutamide], the “tolbutamide block, percentage block of the azide-induced current” value in test [2] (WT channels, 0.5 mM tolbutamide after 3 mM Na-azide) is on record as more than 95%.
